Results on 16 compounds are retold here after PubChem BioAssay (NCI).

What all share (test): DTP human tumour cell line panel, 48 h
The test system of assay [1] is RPMI-8226 leukemia.
Assay [2] deals with RXF 393 renal.
Assay [3] concerns M14 melanoma.
In assay [4] the test system is UO-31 renal.
In assay [5] the test system is CAKI-1 renal.
In assay [6] the test system is HL-60(TB) leukemia.
For assay [7], the system named is LOX IMVI melanoma.
Assay [8] concerns MDA-MB-231 breast.
In assay [9] the test system is HCT-116 colon.
For assay [10], the system named is MDA-N.
The test system of assay [11] is HOP-92 NSCLC.
Assay [12] relates to SR leukemia.
The subject of assay [13] is NCI-H226 lung.

For orientation: TGI means the concentration at which net growth stops. By GI50 is commonly meant the concentration giving 50% growth inhibition.

“And” between values parts separate entries of the source, which are not always exact repeats. Equal entries are not always repeated.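 Dose response: 5 concentrations. Exposure: 48 h. Format: 96-well plates. Endpoint: linear interpolation; highest concentration if not reached. GI50 marks 50% less growth. TGI: total growth inhibition.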

With `COc1cc(/C=C2\N=C(c3ccccc3)N(c3nc4c(OC)ccc(OC)c4s3)C2=O)ccc1O`, the TGI in [1] was 62.8 µM; in [2], > 100 µM; in [3], > 100 µM; in assay [4], > 100 µM; in assay [5] it was > 100 µM; in [6], > 100 µM. Besides, the TGI is 53.2 µM in assay [7]; > 100 µM in [8]; > 100 µM in [9]; 62 µM in [10]; > 100 µM in assay [11]; > 100 µM in [12].
With `Cc1ccc(C)c(COCCOCn2ccc(N)nc2=O)c1`, the TGI in assay [2], in assay [13], in assay [3], in assay [4], in [5] and in [6] was > 100 µM throughout. The TGI in [7], in assay [8], in [9], in assay [10], in assay [11] and in [12] was > 100 µM each time.
Turning to `CNc1nc2n(CCO)c(-c3ccccc3)c(-c3ccccc3)nc-2c(=O)n1`, the TGI in [1], in [2], in assay [13], in [3], in assay [4] and in assay [5] was > 50 µM each time. In addition, the TGI in assay [7], in assay [8], in assay [9], in assay [10], in [11] and in assay [12] was > 50 µM throughout.
Regarding `CCCCCCCCCCN(CCCCCCCCCC)C(=O)COc1c2cc(C(C)(C)C)cc1Cc1cc(C(C)(C)C)cc(c1OCC(=O)N(CCCCCCCCCC)CCCCCCCCCC)Cc1cc(C(C)(C)C)cc(c1OCC(=O)N(CCCCCCCCCC)CCCCCCCCCC)Cc1cc(C(C)(C)C)cc(c1OCC(=O)N(CCCCCCCCCC)CCCCCCCCCC)C2`, the TGI in assay [2] amounted to 22.3 µM; in assay [13], 36.3 µM; in assay [3] it was 8.01 µM; in [4] it was 37.1 µM; in [6] it was 30.9 µM; in assay [7], 23.7 µM. Further, the TGI in assay [8] was found to be 33.2 µM; in assay [9] it was 5.6 µM; in assay [10], 24.9 µM; in assay [11] it was 11.4 µM; in assay [12], 6.06 µM.
Take `COc1ccc(N2C(=O)c3cc(C)cnc3S2(=O)=O)cc1`: the TGI in assay [1], in [2], in assay [13], in assay [4], in assay [6] and in [7] was > 100 µM each time. In addition, the TGI in assay [8], in assay [9], in assay [10], in [11] and in assay [12] was > 100 µM throughout.
Consider `C=C1CC[C@H](O)C(C)(C)[C@@H]1CC/C(C)=C/CC/C=C(\C)CC/C=C(\C)CCC=C(C)C`, for which the TGI in [2] was 51.9 µM; in assay [13] it was > 100 µM; in assay [3], > 100 µM; in assay [4], > 100 µM; in [5], > 100 µM; in assay [6], 69 µM. In addition, the TGI in [7], in assay [8], in [9], in [10], in assay [11] and in assay [12] was > 100 µM in each case.
Consider `O=c1[nH]c(Nc2nc3ccccc3[nH]2)nc2c1CCC2`, for which the TGI in [2], in [13], in [3], in assay [4], in assay [5] and in [6] was > 100 µM throughout. Moreover, the TGI in assay [7] was > 100 µM; in [8] it was 51.1 µM; in [9], > 100 µM; in assay [10], > 100 µM; in assay [11], > 100 µM; in assay [12] it was > 100 µM.
For the compound `O=C(O)[C@@H]1CSCN1C(=O)[C@@H]1CCC(=S)N1`, the TGI in [1], in [2], in [13], in assay [3], in [4] and in assay [5] was > 100 µM each time. For the same compound, the TGI in assay [6], in assay [7], in assay [8], in [10] and in assay [12] was > 100 µM in each case.
For the compound `COC(=O)C1=C(C(=O)OC)c2cc(OC)ccc2C(C(=S)N(C)C)S1` (stereo unspecified), the TGI in assay [1], in assay [2], in [13], in [3], in assay [4] and in assay [5] was > 100 µM throughout. In addition, the TGI in [7], in assay [8], in assay [9], in assay [10], in [11] and in [12] was > 100 µM in each case.
For `CCc1c(C)c(C#N)c(=S)n(C2OC(COC(C)=O)C(OC(C)=O)C(OC(C)=O)C2OC(C)=O)c1C` (stereo unspecified), the concentration for total growth inhibition (TGI) is > 100 µM and 29.1 µM in assay [2]; > 100 µM in assay [13]; > 100 µM in assay [3]; 92.2 µM and 14.5 µM in assay [4]; > 100 µM in assay [5]; > 100 µM in assay [6]. The TGI in assay [7] is > 100 µM; in assay [8] it was > 100 µM and 73.9 µM; in assay [9], > 100 µM and 45.5 µM; in [10], > 100 µM; in [12], > 100 µM. The GI50 in assay [13] is > 100 µM and 38.2 µM; in [4], 11 µM and 3.57 µM; in assay [8], > 100 µM and 13 µM; in [9], > 100 µM and 21.7 µM.
With `O=C1NCCCNCCCNCCCNC(=O)c2cccc1n2`, the TGI in [1], in assay [2], in assay [13], in assay [3], in [4] and in [5] was > 100 µM in each case. For the same compound, the TGI in assay [7], in assay [8], in assay [9], in assay [10] and in assay [12] was > 100 µM each time.
Take `CC1=CC(=O)N(n2c(Cc3ccccc3)n[nH]c2=O)C1=O`: the TGI in assay [1], in [2], in assay [13], in [3], in [4] and in [5] was > 100 µM in each case. The TGI in [7], in assay [8], in assay [9], in assay [10], in [11] and in [12] was > 100 µM each time.
For the compound `COc1ccccc1N1CCN(CCCN2/C(=C(\O)c3ccccc3)C(=O)c3c(C)cc(C)nc3S2(=O)=O)CC1`, the TGI in assay [2] is > 100 µM; in [13], 87.9 µM; in [3] it was > 100 µM; in assay [4] it was > 100 µM; in [5] it was > 100 µM; in [6], > 100 µM. In addition, the TGI in assay [7] was 50 µM; in assay [8], > 100 µM; in [9], > 100 µM; in assay [10], > 100 µM; in assay [11], 98 µM; in assay [12], > 100 µM.
On to `CN(/N=C/c1ccc(OCc2cccc(COc3ccc(C=O)cc3)n2)cc1)c1cnn(-c2ccc(Cl)cc2Cl)c(=O)c1Cl`, for which the TGI was > 100 µM in [1]; 73.2 µM in assay [2]; > 100 µM in assay [13]; > 100 µM in assay [3]; > 100 µM in assay [4]; > 100 µM in [5]. The TGI in [6], in assay [7], in assay [8], in assay [9], in assay [10] and in assay [12] was > 100 µM each time.
With `Cc1ccc(N=Nc2c(C)c(C#N)c(=S)n(C3OC(CO)C(O)C(O)C3O)c2C)cc1` (stereo unspecified), the TGI is > 100 µM in assay [1]; 93.6 µM in assay [2]; 41.7 µM in [3]; 98.8 µM in [4]; > 100 µM in [5]; > 100 µM in assay [6]. Moreover, the TGI in assay [7] is 45 µM; in assay [8], 60 µM; in assay [9], 62.9 µM; in assay [10], > 100 µM; in [11], 49.3 µM; in assay [12] it was > 100 µM.
`C=C(CC[C@@H](C)[C@H]1CC[C@@]2(C)C3=C(CC[C@]12C)[C@@]1(C)CC[C@H](O)[C@@H](C)C1CC3)C(C)C` (stereo partly specified): the TGI in assay [2] was 2.54 µM; in [13], 5.01 µM; in assay [3] it was 2.36 µM; in assay [4], 2.35 µM; in assay [5] it was 2.26 µM; in [6], 8.32 µM. For the same compound, the total growth inhibition concentration (TGI) in assay [7] worked out at 2 µM; in assay [8], 2.74 µM; in [9] it was 2.48 µM; in assay [10] it was 2.33 µM; in assay [11], 2.54 µM; in assay [12] it was 2.71 µM.
